{"source": "the SangsterLogP compilation"}
{"settings": "not given"}
{"smiles": "COP(=S)(Oc1cc(Cl)c(Br)cc1Cl)c1ccccc1", "note": "(centres undefined)", "logP": 5.88}
{"smiles": "CCOP(=O)(OCC)Oc1ccc([N+](=O)[O-])cc1", "logP": 1.98}
{"smiles": "CCOP(=S)(OCC)Oc1cc(C)nc(C(C)C)n1", "logP": 3.81}
{"smiles": "CCOP(=S)(OCC)Oc1ccc(S(C)(=O)=O)cc1", "logP": 2.56}
{"smiles": "COP(=S)(OC)Oc1cc(Cl)c(Br)cc1Cl", "logP": 4.88}
{"smiles": "COP(=S)(OC)SCSc1ccc(Cl)cc1", "logP": 4.82}
{"smiles": "CCOP(=S)(OCC)Oc1ccc(SC)cc1", "logP": 4.16}
{"smiles": "CCOP(=S)(OCC)Oc1ccc(S(C)=O)cc1", "note": "(centres undefined)", "logP": 2.23}
{"smiles": "COP(=O)(Oc1cc(Cl)c(Br)cc1Cl)c1ccccc1", "note": "(centres undefined)", "logP": 4.58}
{"smiles": "CCOP(=S)(OCC)Oc1cc(C)nc(N(CC)CC)n1", "logP": 4.85}
{"smiles": "CCOP(=S)(OCC)SCCS(=O)(=O)CC", "logP": 1.87}
{"smiles": "CCOP(=O)(OCC)SCS(=O)(=O)CC", "logP": 1.98}
{"smiles": "Cc1cc(Cl)ccc1/N=C/N(C)C", "logP": 2.89}
{"smiles": "COP(=O)(OC)SCn1nnc2ccccc2c1=O", "logP": 0.78}
{"smiles": "COP(=S)(OC)SCN1C(=O)c2ccccc2C1=O", "logP": 2.78}
{"smiles": "CCOP(=S)(OCC)Oc1ccc(N)cc1", "logP": 2.6}
{"smiles": "CCOP(=O)(OCC)Oc1cc(C)nc(C(C)C)n1", "logP": 2.07}
{"smiles": "CCOP(=S)(OCC)Oc1cc(Cl)c(Br)cc1Cl", "logP": 5.68}
{"settings": "pH 9.0"}
{"smiles": "CNC(=O)Oc1ccc(N(C)C)c(C)c1", "logD": 1.9}
